Results reported in PubChem BioAssay (NCI).
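Compound exposure: 48 hours, 5 concentrations, 96-well plates. The concentration for full growth arrest is given as TGI.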

Columns and labels:
Experiment in all cases: NCI-60 cell line screen, 48 h
786-0 renal = system: 786-0 renal
A498 renal = system: A498 renal
A549 NSCLC = system: A549 NSCLC
ACHN renal = system: ACHN renal
BT-549 breast = system: BT-549 breast
CAKI-1 renal = system: CAKI-1 renal
CCRF-CEM leukemia = system: CCRF-CEM leukemia
COLO 205 colon = system: COLO 205 colon
DU-145 prostate = system: DU-145 prostate
EKVX NSCLC = system: EKVX NSCLC
HCC-2998 colon = system: HCC-2998 colon
HCT-116 colon = system: HCT-116 colon
HCT-15 colon = system: HCT-15 colon
HL-60(TB) leukemia = system: HL-60(TB) leukemia
HOP-62 NSCLC = system: HOP-62 NSCLC
HOP-92 NSCLC = system: HOP-92 NSCLC
HS 578T breast = system: HS 578T breast
HT29 colon = system: HT29 colon
IGROV1 ovarian = system: IGROV1 ovarian
K-562 leukemia = system: K-562 leukemia
KM12 colon = system: KM12 colon
LOX IMVI melanoma = system: LOX IMVI melanoma
M14 melanoma = system: M14 melanoma
MALME-3M melanoma = system: MALME-3M melanoma
MCF7 breast = system: MCF7 breast
MDA-MB-231 breast = system: MDA-MB-231 breast
MDA-MB-435 = system: MDA-MB-435
MDA-N = system: MDA-N
MOLT-4 leukemia = system: MOLT-4 leukemia
NCI-H226 lung = system: NCI-H226 lung
NCI-H23 lung = system: NCI-H23 lung
NCI-H460 lung = system: NCI-H460 lung
NCI-H522 lung = system: NCI-H522 lung
NCI/ADR-RES ovarian = system: NCI/ADR-RES ovarian
OVCAR-3 ovarian = system: OVCAR-3 ovarian
OVCAR-4 ovarian = system: OVCAR-4 ovarian
OVCAR-5 ovarian = system: OVCAR-5 ovarian
OVCAR-8 ovarian = system: OVCAR-8 ovarian
PC-3 prostate = system: PC-3 prostate
RXF 393 renal = system: RXF 393 renal
SF-268 CNS = system: SF-268 CNS
SF-295 CNS = system: SF-295 CNS
SF-539 CNS = system: SF-539 CNS
SK-MEL-2 melanoma = system: SK-MEL-2 melanoma
SK-MEL-28 melanoma = system: SK-MEL-28 melanoma
SK-MEL-5 melanoma = system: SK-MEL-5 melanoma
SK-OV-3 ovarian = system: SK-OV-3 ovarian
SN12C renal = system: SN12C renal
SNB-19 CNS = system: SNB-19 CNS
SNB-75 CNS = system: SNB-75 CNS
SW-620 colon = system: SW-620 colon
T-47D breast = system: T-47D breast
TK-10 renal = system: TK-10 renal
U251 CNS = system: U251 CNS
UACC-257 melanoma = system: UACC-257 melanoma
UACC-62 melanoma = system: UACC-62 melanoma
UO-31 renal = system: UO-31 renal

Cc1c2oc3c(C)cnc(C(=O)NC4C(=O)NC(C(C)C)C(=O)N5CCCC5C(=O)N(C)CC(=O)N(C)C(C(C)C)C(=O)OC4C)c3nc-2c(C(=O)NC2C(=O)NC(C(C)C)C(=O)N3CCCC3C(=O)N(C)CC(=O)N(C)C(C(C)C)C(=O)OC2C)c(N)c1=O (stereo unspecified)
TGI (786-0 renal): > 75 µM
TGI (A498 renal): 29.8 µM
TGI (A549 NSCLC): > 75 µM
TGI (ACHN renal): > 64.6 µM
TGI (BT-549 breast): 33.5 µM
TGI (CAKI-1 renal): 73 µM
TGI (CCRF-CEM leukemia): 5.44 µM
TGI (COLO 205 colon): 14.2 µM
TGI (DU-145 prostate): > 75 µM
TGI (EKVX NSCLC): > 75 µM
TGI (HCC-2998 colon): 15.7 µM
TGI (HCT-116 colon): > 35.5 µM
TGI (HCT-15 colon): > 75 µM
TGI (HL-60(TB) leukemia): > 26 µM
TGI (HOP-62 NSCLC): > 57.7 µM
TGI (HOP-92 NSCLC): 36 µM
TGI (HS 578T breast): 19.5 µM
TGI (HT29 colon): > 75 µM
TGI (IGROV1 ovarian): > 75 µM
TGI (K-562 leukemia): 2.36 µM
TGI (KM12 colon): 61.1 µM
TGI (LOX IMVI melanoma): 10.3 µM
TGI (M14 melanoma): 16.8 µM
TGI (MALME-3M melanoma): 16.6 µM
TGI (MCF7 breast): > 75 µM
TGI (MDA-MB-231 breast): 41.3 µM
TGI (MDA-MB-435): 16.7 µM
TGI (MDA-N): 16.9 µM
TGI (MOLT-4 leukemia): 0.675 µM
TGI (NCI-H226 lung): 23.8 µM
TGI (NCI-H23 lung): > 54.8 µM
TGI (NCI-H460 lung): > 24.6 µM
TGI (NCI-H522 lung): 18 µM
TGI (NCI/ADR-RES ovarian): > 75 µM
TGI (OVCAR-3 ovarian): > 58.2 µM
TGI (OVCAR-4 ovarian): 73.5 µM
TGI (OVCAR-5 ovarian): > 75 µM
TGI (OVCAR-8 ovarian): > 44.5 µM
TGI (PC-3 prostate): > 47.1 µM
TGI (RXF 393 renal): 18.8 µM
TGI (SF-268 CNS): 24.4 µM
TGI (SF-295 CNS): 39.9 µM
TGI (SF-539 CNS): 17.7 µM
TGI (SK-MEL-2 melanoma): 10.4 µM
TGI (SK-MEL-28 melanoma): 30.3 µM
TGI (SK-MEL-5 melanoma): 21.6 µM
TGI (SK-OV-3 ovarian): 61.5 µM
TGI (SN12C renal): > 70.1 µM
TGI (SNB-19 CNS): > 68.4 µM
TGI (SNB-75 CNS): 21.3 µM
TGI (SW-620 colon): > 53.3 µM
TGI (T-47D breast): > 53.4 µM
TGI (TK-10 renal): > 75 µM
TGI (U251 CNS): > 38 µM
TGI (UACC-257 melanoma): 33.8 µM
TGI (UACC-62 melanoma): 12.4 µM
TGI (UO-31 renal): 51 µM

N#CC(c1ccccc1)N(CCc1ccccc1)C(=O)c1ccc(C(=O)N(CCc2ccccc2)C(C#N)c2ccccc2)cc1 (stereo unspecified)
TGI (786-0 renal): 56.5 µM
TGI (A498 renal): 75.3 µM
TGI (A549 NSCLC): > 100 µM
TGI (ACHN renal): 73.5 µM
TGI (BT-549 breast): 44.3 µM
TGI (CAKI-1 renal): > 100 µM
TGI (CCRF-CEM leukemia): 71.5 µM
TGI (COLO 205 colon): 55.6 µM
TGI (DU-145 prostate): > 100 µM
TGI (EKVX NSCLC): > 100 µM
TGI (HCC-2998 colon): 29.1 µM
TGI (HCT-116 colon): 28.4 µM
TGI (HCT-15 colon): 37.8 µM
TGI (HL-60(TB) leukemia): > 100 µM
TGI (HOP-92 NSCLC): 28.1 µM
TGI (HS 578T breast): 39.1 µM
TGI (HT29 colon): 38.6 µM
TGI (IGROV1 ovarian): 57 µM
TGI (K-562 leukemia): 67.4 µM
TGI (KM12 colon): > 100 µM
TGI (LOX IMVI melanoma): 37 µM
TGI (M14 melanoma): 79 µM
TGI (MALME-3M melanoma): 39.3 µM
TGI (MCF7 breast): > 100 µM
TGI (MDA-MB-231 breast): 76.1 µM
TGI (MDA-MB-435): 58 µM
TGI (MDA-N): 65.1 µM
TGI (NCI-H226 lung): 33.8 µM
TGI (NCI-H23 lung): 77.6 µM
TGI (NCI-H460 lung): 37 µM
TGI (NCI/ADR-RES ovarian): 47.3 µM
TGI (OVCAR-3 ovarian): 47 µM
TGI (OVCAR-4 ovarian): 64 µM
TGI (OVCAR-5 ovarian): 78.7 µM
TGI (OVCAR-8 ovarian): 34.6 µM
TGI (PC-3 prostate): > 100 µM
TGI (RXF 393 renal): 61.3 µM
TGI (SF-268 CNS): 55.2 µM
TGI (SF-295 CNS): 51.9 µM
TGI (SF-539 CNS): 42.6 µM
TGI (SK-MEL-2 melanoma): 48.1 µM
TGI (SK-MEL-28 melanoma): 51.3 µM
TGI (SK-MEL-5 melanoma): 27.2 µM
TGI (SK-OV-3 ovarian): > 100 µM
TGI (SN12C renal): 38.3 µM
TGI (SNB-19 CNS): > 100 µM
TGI (SNB-75 CNS): 45.8 µM
TGI (SW-620 colon): 58.7 µM
TGI (T-47D breast): 61.3 µM
TGI (TK-10 renal): 29.8 µM
TGI (U251 CNS): 64.6 µM
TGI (UACC-257 melanoma): 35.3 µM
TGI (UACC-62 melanoma): 35.6 µM
TGI (UO-31 renal): 63.8 µM
